The source of these data is US5514715A, “Antimicrobial agent, FR109615 and production thereof” (Fujisawa Pharmaceutical Co., Ltd., priority 1987, dated 1996).

In series [1] the test system is Candida albicans. The series is described as follows: Antimicrobial activity, micro-broth dilution method (Test 1). It counts as cell-based. The following applies: E. MEM, 37° C., 20 hours, 5% CO2, read-out: MIC (minimum inhibitory concentration). The method, then: (§1) Test 1 (Antimicrobial activity)
(§2) Antimicrobial activity of FR109615 was measured by a conventional micro-broth dilution method using 96 well multi-trays.
(§3) A suspension of the test microorganism (10^6 cells/ml) was prepared by diluting an overnight cultured broth of the organism with Eagle's minimum essential medium (E. MEM). A serially diluted solution of FR109615 in E. MEM (100 μl ) was added to a well of the multi-tray. To the well, the suspension of the test organism was added. The multi-trays were incubated at 37° C. for 20 hours in 5% CO2 atmosphere.
On the technique in general: Dilution methods test growth across graded concentrations, often in twofold steps.

For series [2], the system named is Candida krusei. The description is as above. Format: cell-based. The following applies: Pichia kudriavzevii, E. MEM, 37° C., 20 hours, 5% CO2, read-out: MIC (minimum inhibitory concentration). The method, then:
as §1, §2, §3

Series [3] has as its system Candida utilis. Described as above. It counts as cell-based. To be noted: Williopsis jadinii, E. MEM, 37° C., 20 hours, 5% CO2, read-out: MIC (minimum inhibitory concentration). The method, then: as §1, §2, §3
Series [4] concerns Mucor rouxianus. Described as above. It counts as cell-based. To be noted: E. MEM, 37° C., 20 hours, 5% CO2, read-out: MIC (minimum inhibitory concentration). Here is the method: as §1, §2, §3
Series [5] concerns Tricophyton mentagrophytes. The series is described as above. It counts as cell-based. The following applies: E. MEM, 37° C., 20 hours, 5% CO2, read-out: MIC (minimum inhibitory concentration). Here is the method:
as §1, §2, §3

The subject of series [6] is C. krusei FP585. Briefly: Protective effect against fungi in experimental mice infection (Test 2). It counts as in vivo, ICR strain. The following applies: Pichia kudriavzevii, sc, 336 h; C. krusei FP585, inoculum 2.0 × 10^7 cfu/head; cyclophosphamide-immunosuppressed mice; subcutaneous, 1 h after challenge then twice a day for 2 days; survival 14 days, probit method. Here is the method: (§4) Test 2 (Protective effect of FR109615 against fungi in experimental mice infection) (1) Test animal 4 Weeks old mice, ICR strain, each weighing 18-21 g. One group consists of 10 mice. (2) Test method 4 Days before challenge, the test mice intraperitoneally received a saline solution of cyclophosphamide (immunosuppressant) ([…]). Each pf pathogenic microorganisms suspended in saline were injected into mice via the lateral tail vein. One hour after challenge, a saline solution of FR109615 was subcutaneously injected into the mice. This treatment was repeated twice a day for 2 days from the next day after challenge.

The test system of series [7] is C. pseudotropicalis FP584. The description is as above. Format: in vivo, ICR strain. To be noted: Kluyveromyces marxianus, sc, 336 h; C. pseudotropicalis FP584, inoculum 2.0 × 10^7 cfu/head; cyclophosphamide-immunosuppressed mice; subcutaneous, 1 h after challenge then twice a day for 2 days; survival 14 days, probit method. Here is the method:
as §4

Series [8] has as its system C. stellatoidea FP588. The series is described as above. Format: in vivo, ICR strain. To be noted: Candida albicans, sc, 336 h; C. stellatoidea FP588, inoculum 2.0 × 10^6 cfu/head; cyclophosphamide-immunosuppressed mice; subcutaneous, 1 h after challenge then twice a day for 2 days; survival 14 days, probit method. Here is the method:
as §4

For series [9], the system named is C. tropicalis 8001. The series is described as above. It counts as in vivo, ICR strain. To be noted: Candida tropicalis, sc, 336 h; C. tropicalis 8001, inoculum 5.6 × 10^4 cfu/head; cyclophosphamide-immunosuppressed mice; subcutaneous, 1 h after challenge then twice a day for 2 days; survival 14 days, probit method. The method, then:
as §4

Series [10] has as its system Candida albicans FP622. Described as above. It counts as in vivo, ICR strain. The following applies: sc, 336 h; Candida albicans FP622, inoculum 4.8 × 10^4 cfu/head; cyclophosphamide-immunosuppressed mice; subcutaneous, 1 h after challenge then twice a day for 2 days; survival 14 days, probit method. Here is the method: as §4
In series [11] the test system is Staphylococcus aureus Smith. The series is described as follows: Protective effect against bacteria in experimental mice infection (Test 3). The following applies: inoculum 2.5 × 10^8 cfu, 10 mg/kg subcutaneous once a day for 4 days, 11 days observation, all control mice died. Format: in vivo, ICR strain. The method, then:
Test 3 (Protective effect of FR109615 against bacteria in experimental mice infection)
4 Weeks old mice, ICR strain, each weighing 18-21 g. One group consists of 10 mice.
Pathogenic microorganism suspended in saline were injected into mice via the lateral tail vein. After challenge, a saline solution of FR109615 was subcutaneously injected into the mice (Dosage: 10 mg/kg) once a day for 4 days. […] All of the control mice (non-treatment group) died.

Series [12] concerns ICR mice. The series is described as follows: Acute toxicity (Test 4). It counts as in vivo, 4 weeks old). The following applies: female, single intravenous injection, 1 g/kg. The method, then: The acute toxicity of FR109615 was determined to ICR mice (female, 4 weeks old) by a single intravenous injection.
A short description of series [13]: Solubility (physicochemical properties).
Series [14] concerns pathogenic microorganisms, especially pathogenic fungi such as pathogenic yeast (e.g. Candida albicans). Briefly: Antimicrobial activity against pathogenic microorganisms (general statement).

≈ marks a conversion by molar mass, not a printed value.

By ED50 is commonly meant the dose at which the effect has come halfway, by size or by number of responders. Higher therefore signals a need for a large dose.

Take `N[C@H]1CCC[C@H]1C(=O)O` [FR109615, (1R, 2S)-2-aminocyclopentanecarboxylic]: the MIC in [1] was 16 µg/mL (≈ 124 µM); in series [2], 8 µg/mL (≈ 61.9 µM); in series [3] it was 32 µg/mL (≈ 248 µM); in series [4], 500 µg/mL (≈ 3870 µM); in series [5], 250 µg/mL (≈ 1940 µM). Further, the ED50 was 0.78 mg/kg in series [6]; 2.38 mg/kg in [7]; 1.11 mg/kg in series [8]; 3.8 mg/kg in series [9]; 0.87 mg/kg in [10]. For the same molecule, the survival ratio in [11] is reported as 100%. In addition, the “acute toxicity, toxic symptom” value in series [12] is listed as “No toxic symptom was observed”. In addition, the Solubility result in [13] (Acetone) was “Insoluble”; in series [13] (Chloroform), “Insoluble”; in series [13] (Ethanol) it was “Sparingly soluble”; in [13] (Ethyl acetate) it was “Insoluble”; in [13] (Methanol) it was “Sparingly soluble”; in series [13] (Water), “Soluble”. In addition, in [14], the antimicrobial activity entry is listed as “strong antimicrobial activity”.
